Bounds are passed on as bounds.

Data set [1] in a line: physchem. Particulars: octanol/water, pH 7.4.
A short description of data set [2]: Plasma concentration in C57BL/6 mouse plasma at 30 mg/kg, ip after 30 mins. Details: dose 30 mg/kg, route intraperitoneal. Type of data set: ADME, organism-based, C57BL6.
Data set [3] has as its system Brain. The data set can be described thus: Drug level in C57BL/6 mouse brain at 30 mg/kg, ip after 30 mins. Type of data set: ADME, organism-based, C57BL6. More on the design: dose 30 mg/kg, route intraperitoneal. Particulars: in vivo, 0.5 h.
Data set [4] is described as follows: Ratio of drug level in brain to plasma in C57BL/6 mouse at 30 mg/kg, ip after 30 mins. The data set is classed as ADME, organism-based, C57BL6. More on the design: dose 30 mg/kg, route intraperitoneal.
Data set [5] deals with Brain. Nature of the data set: Drug level in mdr1a deficient CF-1 mouse brain at 30 mg/kg, ip after 30 mins. More on the design: dose 30 mg/kg, route intraperitoneal. The note with it: in vivo, 0.5 h. The data set is classed as ADME, organism-based.
The nature of data set [6]: Ratio of drug level in brain to plasma in mdr1a deficient CF-1 mouse at 30 mg/kg, ip after 30 mins. Particulars: CF-1 (mdr1a deficient). The data set is classed as ADME, organism-based. More on the design: dose 30 mg/kg, route intraperitoneal.
A short description of data set [7]: Plasma concentration in mdr1a deficient CF-1 mouse at 30 mg/kg, ip after 30 mins. The data set is classed as ADME, organism-based. More on the design: dose 30 mg/kg, route intraperitoneal. Particulars: CF-1 (mdr1a deficient).

The logD is the decadic logarithm of the distribution of all forms, ionised or not, between an organic phase and buffer at a given pH. As to `Cc1nc(SCc2cc(N3CCOCC3)cc(NCC#N)n2)n(C)c1C`, in data set [1], the logD was determined as 1.

In the case of `CCc1oc(SCc2cc(N3CCOCC3)cc(NCC#N)n2)nc1C`, in data set [1], the logD worked out at 2.6.

`CCc1oc(CCc2cc(N3CCOCC3)cc(NCC#N)n2)nc1C` showed a logD in data set [1] of 2.4.

`CCc1oc(CCc2cc(N3CCOCC3)cc(NC(C)C)n2)nc1C`: the logD in data set [1] turned out to be 2.4.

As for `CCCNc1cc(N2CCOCC2)cc(CCc2nc(C)c(CC)o2)n1`, the logD in data set [1] was determined as 2.5.

`CCc1oc(CCc2cc(N3CCOCC3)cc(NC(C)=O)n2)nc1C`: in data set [1], the logD turned out to be 2.3.

Take `CCc1oc(CCc2cc(N3CCOCC3)cc(NCC(F)(F)F)n2)nc1C`: in data set [1], the logD was determined as 3.5.

On to `Cc1nc(OCc2cc(N3CCOCC3)cc(NCC#N)n2)oc1C`, for which, in data set [1], the logD amounted to 2.1.

The term Kp denotes tissue or fluid exposure divided by exposure in the circulation. For the molecule `Cc1nc(SCc2cc(N3CCOCC3)cc(NCC#N)n2)sc1C`, the concentration at 0.5 h came to 3.4 µM in data set [2] and 5.2 µM in data set [7]. Besides, the Drug uptake in data set [3] is 0.9 nmol/g; in data set [5] it was 4.7 nmol/g. For the same molecule, the Kp at 0.5 h was 0.27 in data set [4] and 0.9 in data set [6]. Besides, the logD in data set [1] was 2.4.

For `CCc1oc(CCc2cc(N3CCOCC3)cc(NCCC#N)n2)nc1C`, the logD in data set [1] is 2.

In data set [1], `CCOC(=O)CNc1cc(N2CCOCC2)cc(CCc2nc(C)c(CC)o2)n1` registered a logD of 2.8.

As to `Cc1nc(SCc2cc(N3CCOCC3)cc(NCC#N)n2)oc1C`, the logD in data set [1] turned out to be 2.

Regarding `CCNc1cc(N2CCOCC2)cc(CCc2nc(C)c(CC)o2)n1`, the logD in data set [1] is 2.2.

On to `CCc1sc(CCc2cc(N3CCOCC3)cc(NC(C)c3cc(Cl)cc(NC(=O)OC(C)C)c3)n2)nc1C` (stereo unspecified), for which the logD in data set [1] is more than 4.

On to `CCc1oc(CCc2cc(N3CCOCC3)cc(NC)n2)nc1C`, for which the logD in data set [1] is 1.7.

Source of the values: ChEMBL document CHEMBL1152970, “Optimization of a series of 2,4-diaminopyridines as neuropeptide Y Y1 receptor antagonists with reduced hERG activity” (Bioorg Med Chem Lett, 2009).
